According to patent US20260356819A1, “OXOISOINDOLINYL-SUBSTITUTED […] DERIVATIVE AND USE THEREOF” (GLUETACS THERAPEUTICS (SHANGHAI) CO., LTD., priority 2023, published 2026):

Key:
Format in all cases: cell-based
Conditions in all cases: compounds at 50 nM and 500 nM
IKZF2 = target: T1, IKZF2 (Homo sapiens, UniProt Q96SW2+Q9UKS7); assay: Western blot degradation of IKZF2 in hPBMCs (24 h)
T1 construct: The supernatant was aspirated as the extracted total cell protein; endogenous in cells; host or cells: human peripheral blood mononuclear cells (hPBMCs)
T1 sequence (Q9UKS7 whole entry): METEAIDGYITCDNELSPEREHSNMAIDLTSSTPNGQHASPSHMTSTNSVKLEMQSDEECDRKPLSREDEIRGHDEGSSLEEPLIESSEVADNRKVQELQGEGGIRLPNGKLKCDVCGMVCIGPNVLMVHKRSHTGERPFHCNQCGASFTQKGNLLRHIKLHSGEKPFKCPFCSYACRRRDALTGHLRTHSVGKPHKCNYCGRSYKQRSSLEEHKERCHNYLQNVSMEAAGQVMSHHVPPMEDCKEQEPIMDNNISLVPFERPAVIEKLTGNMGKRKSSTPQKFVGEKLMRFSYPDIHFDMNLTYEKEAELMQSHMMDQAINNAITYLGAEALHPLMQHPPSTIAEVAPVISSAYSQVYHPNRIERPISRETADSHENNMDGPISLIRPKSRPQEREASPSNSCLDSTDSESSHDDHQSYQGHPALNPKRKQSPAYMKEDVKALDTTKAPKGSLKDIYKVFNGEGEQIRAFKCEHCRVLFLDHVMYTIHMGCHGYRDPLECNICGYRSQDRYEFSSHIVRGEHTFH
T1 sequence (Q96SW2 whole entry): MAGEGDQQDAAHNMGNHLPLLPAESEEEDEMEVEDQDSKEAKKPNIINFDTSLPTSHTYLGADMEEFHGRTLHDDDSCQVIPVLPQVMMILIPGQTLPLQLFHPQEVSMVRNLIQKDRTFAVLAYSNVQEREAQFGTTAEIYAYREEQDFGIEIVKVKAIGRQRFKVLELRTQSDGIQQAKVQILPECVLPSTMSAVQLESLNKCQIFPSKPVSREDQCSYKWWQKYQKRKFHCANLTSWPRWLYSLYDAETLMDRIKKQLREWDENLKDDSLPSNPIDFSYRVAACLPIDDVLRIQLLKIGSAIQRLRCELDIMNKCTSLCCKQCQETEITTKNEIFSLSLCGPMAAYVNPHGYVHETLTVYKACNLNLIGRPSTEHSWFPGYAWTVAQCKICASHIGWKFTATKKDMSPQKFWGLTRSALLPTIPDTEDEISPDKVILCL
T1 sequence (Q16531 whole entry partner): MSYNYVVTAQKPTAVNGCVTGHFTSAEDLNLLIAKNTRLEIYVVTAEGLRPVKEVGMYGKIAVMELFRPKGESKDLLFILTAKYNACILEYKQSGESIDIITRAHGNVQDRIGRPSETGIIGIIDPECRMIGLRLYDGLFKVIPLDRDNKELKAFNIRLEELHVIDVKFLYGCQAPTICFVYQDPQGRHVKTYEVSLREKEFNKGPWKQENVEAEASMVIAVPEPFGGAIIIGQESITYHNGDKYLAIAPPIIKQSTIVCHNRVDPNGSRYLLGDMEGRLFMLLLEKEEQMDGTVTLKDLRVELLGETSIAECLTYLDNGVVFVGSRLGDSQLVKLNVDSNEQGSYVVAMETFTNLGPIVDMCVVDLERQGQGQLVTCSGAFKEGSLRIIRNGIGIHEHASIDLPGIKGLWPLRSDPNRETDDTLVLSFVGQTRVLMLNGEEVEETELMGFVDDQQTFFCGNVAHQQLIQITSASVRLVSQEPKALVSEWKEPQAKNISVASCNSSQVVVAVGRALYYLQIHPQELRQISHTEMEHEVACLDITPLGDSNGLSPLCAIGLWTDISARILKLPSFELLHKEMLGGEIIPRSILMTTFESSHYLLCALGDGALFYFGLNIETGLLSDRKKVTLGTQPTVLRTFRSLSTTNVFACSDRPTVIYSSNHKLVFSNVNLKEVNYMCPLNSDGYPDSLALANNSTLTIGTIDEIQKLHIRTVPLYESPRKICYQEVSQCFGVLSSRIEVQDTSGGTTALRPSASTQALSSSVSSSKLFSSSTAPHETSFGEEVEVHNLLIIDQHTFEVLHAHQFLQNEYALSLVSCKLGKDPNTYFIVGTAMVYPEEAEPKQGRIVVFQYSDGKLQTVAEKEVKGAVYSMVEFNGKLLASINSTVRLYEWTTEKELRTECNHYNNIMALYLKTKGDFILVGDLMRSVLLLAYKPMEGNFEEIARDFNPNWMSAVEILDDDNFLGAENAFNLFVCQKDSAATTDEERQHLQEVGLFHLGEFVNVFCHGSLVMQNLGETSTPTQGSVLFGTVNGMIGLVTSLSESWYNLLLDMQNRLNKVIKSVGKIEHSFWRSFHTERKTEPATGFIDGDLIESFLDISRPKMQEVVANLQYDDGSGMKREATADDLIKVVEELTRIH
Outline: (§1)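 Immunoblot densitometry quantifies target loss in hPBMCs after a 24 h compound exposure (50 nM, 500 nM). Percent remaining is normalised band intensity; DC50 is the concentration giving half the DMSO-control band grayscale.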

CK1α = target: T2, CK1α (Homo sapiens, UniProt P48729+Q96SW2); assay: Western blot degradation of CK1α in hPBMCs (24 h)
T2 construct: The supernatant was aspirated as the extracted total cell protein; endogenous in cells; host or cells: human peripheral blood mononuclear cells (hPBMCs)
T2 sequence (P48729 whole entry): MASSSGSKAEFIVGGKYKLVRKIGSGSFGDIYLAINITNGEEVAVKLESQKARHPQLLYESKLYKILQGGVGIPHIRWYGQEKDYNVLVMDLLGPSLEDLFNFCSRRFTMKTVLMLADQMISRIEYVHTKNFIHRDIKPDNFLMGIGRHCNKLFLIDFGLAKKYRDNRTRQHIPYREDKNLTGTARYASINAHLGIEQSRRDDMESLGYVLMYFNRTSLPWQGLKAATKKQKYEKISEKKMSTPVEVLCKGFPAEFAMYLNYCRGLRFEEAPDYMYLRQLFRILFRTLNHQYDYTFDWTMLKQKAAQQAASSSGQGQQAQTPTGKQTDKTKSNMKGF
T2 sequence (Q96SW2 whole entry): as the sequence (Q96SW2 whole entry) above
T2 sequence (Q16531 whole entry partner): as the sequence (Q16531 whole entry partner) above
Outline: as §1

IKZF1 = target: T3, IKZF1 (Homo sapiens, UniProt Q13422+Q96SW2); assay: Western blot degradation of IKZF1 in hPBMCs (24 h)
T3 construct: The supernatant was aspirated as the extracted total cell protein; endogenous in cells; host or cells: human peripheral blood mononuclear cells (hPBMCs)
T3 sequence (Q13422 whole entry): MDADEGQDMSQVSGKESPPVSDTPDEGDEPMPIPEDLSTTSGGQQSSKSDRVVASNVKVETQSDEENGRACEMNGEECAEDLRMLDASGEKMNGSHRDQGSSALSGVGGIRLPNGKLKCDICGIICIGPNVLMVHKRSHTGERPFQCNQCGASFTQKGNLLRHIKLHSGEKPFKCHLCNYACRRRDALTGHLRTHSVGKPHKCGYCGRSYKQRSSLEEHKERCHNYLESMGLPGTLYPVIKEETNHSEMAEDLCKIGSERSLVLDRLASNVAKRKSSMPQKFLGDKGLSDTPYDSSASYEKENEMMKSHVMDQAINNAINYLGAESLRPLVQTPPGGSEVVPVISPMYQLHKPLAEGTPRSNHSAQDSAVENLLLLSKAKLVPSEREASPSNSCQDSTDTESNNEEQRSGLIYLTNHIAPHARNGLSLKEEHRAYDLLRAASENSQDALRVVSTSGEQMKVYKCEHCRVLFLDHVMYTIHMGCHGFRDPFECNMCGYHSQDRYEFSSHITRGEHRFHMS
T3 sequence (Q96SW2 whole entry): as the sequence (Q96SW2 whole entry) above
T3 sequence (Q16531 whole entry partner): as the sequence (Q16531 whole entry partner) above
Outline: as §1

WEE1 = target: T4, WEE1 (Homo sapiens, UniProt P30291+Q96SW2); assay: Western blot degradation of WEE1 in hPBMCs (24 h)
T4 construct: The supernatant was aspirated as the extracted total cell protein; endogenous in cells; host or cells: human peripheral blood mononuclear cells (hPBMCs)
Outline: as §1

GSPT1 = target: T5, GSPT1 (Homo sapiens, UniProt P15170+Q96SW2); assay: Western blot degradation of GSPT1 in hPBMCs (24 h)
T5 construct: The supernatant was aspirated as the extracted total cell protein; endogenous in cells; host or cells: human peripheral blood mononuclear cells (hPBMCs)
T5 sequence (P15170 whole entry): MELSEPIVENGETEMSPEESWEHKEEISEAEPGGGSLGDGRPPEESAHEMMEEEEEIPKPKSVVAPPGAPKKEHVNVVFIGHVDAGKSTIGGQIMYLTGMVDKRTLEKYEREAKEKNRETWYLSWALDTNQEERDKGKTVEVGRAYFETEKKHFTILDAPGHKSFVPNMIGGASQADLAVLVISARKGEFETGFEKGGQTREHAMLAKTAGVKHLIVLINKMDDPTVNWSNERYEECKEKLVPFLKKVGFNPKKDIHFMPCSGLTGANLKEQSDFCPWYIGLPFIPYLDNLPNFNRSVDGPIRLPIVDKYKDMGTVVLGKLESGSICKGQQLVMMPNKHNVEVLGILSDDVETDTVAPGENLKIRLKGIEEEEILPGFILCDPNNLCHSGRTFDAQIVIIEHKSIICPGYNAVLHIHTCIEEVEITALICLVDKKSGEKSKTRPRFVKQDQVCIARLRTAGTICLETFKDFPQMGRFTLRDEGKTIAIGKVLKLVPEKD
T5 sequence (Q96SW2 whole entry): as the sequence (Q96SW2 whole entry) above
T5 sequence (Q16531 whole entry partner): as the sequence (Q16531 whole entry partner) above
Outline: as §1

IKZF3 = target: T6, IKZF3 (Homo sapiens, UniProt Q96SW2+Q9UKT9); assay: Western blot degradation of IKZF3 in hPBMCs (24 h)
T6 construct: The supernatant was aspirated as the extracted total cell protein; endogenous in cells; host or cells: human peripheral blood mononuclear cells (hPBMCs)
T6 sequence (Q9UKT9 whole entry): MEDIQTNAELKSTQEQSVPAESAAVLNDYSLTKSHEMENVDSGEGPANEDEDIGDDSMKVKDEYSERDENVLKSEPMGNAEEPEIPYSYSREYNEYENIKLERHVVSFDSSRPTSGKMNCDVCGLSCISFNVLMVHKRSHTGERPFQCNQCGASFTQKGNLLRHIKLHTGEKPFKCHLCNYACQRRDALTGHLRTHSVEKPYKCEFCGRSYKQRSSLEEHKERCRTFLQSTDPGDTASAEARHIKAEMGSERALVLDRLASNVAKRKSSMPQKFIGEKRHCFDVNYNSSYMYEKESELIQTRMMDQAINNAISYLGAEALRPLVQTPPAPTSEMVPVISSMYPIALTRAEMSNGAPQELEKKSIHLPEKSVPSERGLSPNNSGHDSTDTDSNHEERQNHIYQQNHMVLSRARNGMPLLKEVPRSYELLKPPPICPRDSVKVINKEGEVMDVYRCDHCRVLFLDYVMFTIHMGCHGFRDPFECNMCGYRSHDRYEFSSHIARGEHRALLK
T6 sequence (Q96SW2 whole entry): as the sequence (Q96SW2 whole entry) above
T6 sequence (Q16531 whole entry partner): as the sequence (Q16531 whole entry partner) above
Outline: as §1

Row | SMILES | IKZF2 substrate protein remaining % (IKZF2) | CK1α substrate protein remaining % (CK1α) | IKZF1 substrate protein remaining % (IKZF1) | WEE1 substrate protein remaining % (WEE1) | GSPT1 substrate protein remaining % (GSPT1) | IKZF3 substrate protein remaining % (IKZF3)
1 | Cc1cc(C2=CCN(Cc3ccc4c(c3)C(=O)N(N3CCC(=O)NC3=O)C4=O)CC2)cs1 [GT-07423, 2-(2,4-dioxotetrahydropyrimidin-1(2H)-yl)-5-((4-(5-methylthiophen-3-yl)-3,6-dihydropyridin-1(2H)-yl)methyl)isoindoline-1,3-dione] | B (80%< substrate protein remaining % ≤100%) | A (0% ≤ substrate protein remaining % ≤80%) | B (80%< substrate protein remaining % ≤100%) | A (0% ≤ substrate protein remaining % ≤80%) | A (0% ≤ substrate protein remaining % ≤80%) | A (0% ≤ substrate protein remaining % ≤80%)
2 | O=C1CCN(N2C(=O)c3ccc(CN4CCC(N5CCCc6cc(F)ccc65)CC4)cc3C2=O)C(=O)N1 [GT-07681, 2-(2,4-dioxotetrahydropyrimidin-1(2H)-yl)-5-((4-(6-fluoro-3,4-dihydroquinolin-1(2H)-yl)piperidin-1-yl)methyl)isoindoline-1,3-dione] | B (80%< substrate protein remaining % ≤100%) | B (80%< substrate protein remaining % ≤100%) | A (0% ≤ substrate protein remaining % ≤80%) | B (80%< substrate protein remaining % ≤100%) | A (0% ≤ substrate protein remaining % ≤80%) | B (80%< substrate protein remaining % ≤100%)
3 | O=C1CCN(N2Cc3cc(CN4CCN(c5c[nH]c6ncccc56)CC4)ccc3C2=O)C(=O)N1 [GT-07502, 1-(5-((4-(1H-pyrrolo[2,3-b]pyridin-3-yl)piperazin-1-yl)methyl)-1-oxoisoindolin-2-yl)dihydropyrimidine-2,4(1H,3H)-dione] | B (80%< substrate protein remaining % ≤100%) | A (0% ≤ substrate protein remaining % ≤80%) | A (0% ≤ substrate protein remaining % ≤80%) | A (0% ≤ substrate protein remaining % ≤80%) | A (0% ≤ substrate protein remaining % ≤80%) | B (80%< substrate protein remaining % ≤100%)
4 | O=C1CCN(N2C(=O)c3ccc(CN4CCN(c5cccc(F)c5)CC4)cc3C2=O)C(=O)N1 [GT-06724, 2-(2,4-dioxotetrahydropyrimidin-1(2H)-yl)-5-((4-(3-fluorophenyl)piperazin-1-yl)methyl)isoindoline-1,3-dione] | B (80%< substrate protein remaining % ≤100%) | B (80%< substrate protein remaining % ≤100%) | A (0% ≤ substrate protein remaining % ≤80%) | A (0% ≤ substrate protein remaining % ≤80%) | B (80%< substrate protein remaining % ≤100%) | B (80%< substrate protein remaining % ≤100%)
